# Patent US20180207172A1, “TREATMENT FOR VITILIGO” (GLAXO GROUP LIMITED, priority 2015, published 2018)
# Test system: CXCL10 secretion induced by poly(I:C) in HaCaT cells
# Experiment: poly(I:C)-induced CXCL10 secretion assay in HaCaT cells (ELISA)
# Type: cell-based, Human
# Conditions: poly(I:C) 20 μg/ml, 48 hours
# Procedure: In another CXCL10 assay, immortalized keratinocytes (HaCaTs) cells (AddexBio #T0020001) were cultured in DMEM (Thermo Fisher #10566-016) supplemented with 10% FBS and 1% penicillin/streptomycin. 1×10^5 HaCaT cells were seeded per well of a 24-well culture dish in 400 μl culture medium. Once confluent, medium was aspirated and cells were pretreated with 200 μl of DMSO vehicle (0.1%) or 3-fold serial dilutions ([…]) of 7-(2-(methyloxy)-6-{[(4-methyl-2-pyridinyl)methyl]oxy}-phenyl)-2,3,4,5-tetrahydro-1H-3-benzazepine (Compound 1) for 30 minutes at 37° C. with 5% CO2. After pre-treatment, 200 μl of poly(I:C) at 40 μg/ml was added per well (without removal of pre-treatment medium), making the final treatment concentration 20 μg/ml. Additional compound and/or DMSO was included to maintain concentrations. All samples received 0.1% DMSO during both pre-treatment and treatment phases. Cells were returned to the incubator for 48 hours. Each condition had biological triplicates.
# At 48 hours, supernatants were collected, centrifuged to pellet debris, and then re-collected. CXCL10 secreted into the supernatant was measured by the Human CXCL10/IP-10 Quantikine ELISA Kit (R&D Systems #DIP 100) according to the manufacturer's protocol. […]
structure (smiles),measurement,setting,value
"COc1cccc(OCc2cc(C)ccn2)c1-c1ccc2c(c1)CCNCC2 [Compound 1, 7-(2-(methyloxy)-6-{[(4-methyl-2-pyridinyl)methyl]oxy}-phenyl)-2,3,4,5-tetrahydro-1H-3-benzazepine]","CXCL10 secretion induced by poly(I:C), percentage of maximum stimulation (vehicle = 100%)","30 min pre-treatment, supernatant ELISA, FIG. 1",dose-dependent decrease
same,dose concentration at which maximal inhibition of CXCL10 secretion was observed,highest concentration tested,10 µM
